Laboratory results reported in US20250188032A1, “NITROGEN-CONTAINING HETEROCYCLIC COMPOUNDS AND USES THEREOF” (BNH RESEARCH CO., LTD., priority 2022, published 2025).

Key:
[1] = tested on: HDAC4, BDNF and GluN2B expression in primary cultured cortical neurons; experiment: Expression of HDAC4, BDNF and GluN2B in primary cultured cortical neurons; assay type: cell-based, mouse
Method: Meanwhile, primary cortical neuron cells were isolated from cerebral cortices of 18-day-old mouse fetuses, incubated in prep media (composition (mM). NaCl 107.5. NaH2PO4 1, NaHCO333.5, glucose 11, HEPS 1%, penicillin-streptomycin 1%) containing 0.25% trypsin and DNase1 for 30 minutes, dissociated into single cells, and seeded. Primary cortical neuron cells were grown in Neurobasal medium supplemented with 1% (v/v) B27, 1% penicillin (100 U/mL), streptomycin ([…]), and 1% Glutamax. Cells were maintained in a humidified atmosphere of 95% air and 5% CO2 at 37° C. Drug efficacy was evaluated after culturing primary cortical neuron cells for 14 days.
The amount of GluN2B reacted with the compound of the present disclosure was measured using Western blot. The fetal cerebral cortex was extracted from mice at 17 days of gestation, dissociated into single cells, cultured for 13 days, and treated with BnH drugs for 24 hours. The drug-treated cells were subjected to protein lysate preparation using RIPA protein lysis buffer containing protease and phosphatase inhibitors. The protein concentration was determined using a BCA protein assay kit (Pierce Biotechnology) using bovine serum albumin as a standard. Equal amounts of protein (20 μg per lane) were separated by electrophoresis on SDS-polyacrylamide gels at 90 V for 2 hours, then transferred from the SDS-polyacrylamide gel to PVDF membrane at 100 V for 1 hour. Then, primary reaction with GluN2B antibody (ab65783, Abcam) was performed at 4° C. for 1 day, washed three times at 10-minutes intervals with 1×PBT, and secondary reaction was performed with anti-mouse antibody (sc-2357, Santa Cruz) for 1 hour, followed by washing three times at 10-minutes intervals with 1×PBT. Western blotting was performed as described above to confirm GluN2B protein expression. Subsequently, each blot was re-probed using anti-β-actin antibody (sc-47778, Santa Cruz). Housekeeping protein β-actin was detected as a normalization control.

[2] = tested on: HDAC4, BDNF and GluN2B expression in C57BL/6J mice cortex; experiment: Western blotting of HDAC4, BDNF and GluN2B in mouse cortical tissue after administration; assay type: in vivo
Method: For preparation of thalamocortical (TC) slices, 9- to 10-week-old male C57BL/6J rodents (mice) were anesthetized with isoflurane. Then, the brains were rapidly cooled by transcardial perfusion with ice-cold sucrose-artificial cerebrospinal fluid (aCSF). The brains were removed and placed in ice-cold sucrose aCSF. Paracoronal slices were prepared at a 50° angle to the midline on a ramp at an angle of 10°. The slices were then incubated in aCSF for 30 minutes at 35° C. to recover.
Subsequently, the slices were incubated in aCSF for 1 to 4 hours at room temperature (23 to 25° C.) before being placed in the recording chamber for experiment. Standard aCSF contains saturated with 95% O2/5% CO2.
All electrophysiological experiments were conducted at 27 to 29° C. Rodent (mice) was perfused with […] a sucrose-based aCSF solution (4° C.) using gravity. The brain of the rodent (mice) was removed and cut into 400 urn at a 50° angle (mouse at a 55° angle) to attach the cut portion to the vibratome disc to be the bottom. Brain slice was incubated in Incubate aCSF solution at 35° C. for 30 minutes or Incubate aCSF solution at RT for 1 hour. Cortical tissue from mice was prepared according to protocol above then was homogenized and lysed for protein extraction. The protein lysate was prepared from the tissue with NP40(FNN0021, Invitrogen) protein lysis buffer containing protease & […] according to the manufacturer's instruction. Protein concentrations were determined using the BCA Protein Assay Kit (Pierce Biotechnology) with bovine serum albumin as a standard. Equal amounts of proteins (20 μg per lane) were separated by electrophoresis on 8% or 12% SDS-polyacrylamide gel, followed by blotting onto PVDF membranes (GE Healthcare). To block nonspecific binding, the membranes were incubated for 1 h at room temperature in 5% non-fat dry milk in PBST (150 mM NaCl, 50 mM Tris, pH 7.4, 0.05% Tween 20). The following antibodies were incubated overnight at 4° C. in 2% blocking solution: Anti-HDAC4 (SAB4300413, Sigma-Aldrich), Anti-BDNF (ANT-010, Alomone Las), Anti-NMDAR2B (ab65783, abcam plc). Following the incubation with antibodies and several rinses in PBST, the membranes were incubated for 1 h with the mouse anti-rabbit IgG-HRP conjugated secondary anti-bodies (sc-2357, Santa Cruz). Each blot was subsequently re-probed with anti-β-actin antibody (sc-47778, Santa Cruz). Housekeeping protein β actin was detected as a normalization control. Antibodies used for methods described herein are as follows: […]

[3] = primary cultured cortical neurons
[4] = 1 μM, 24-hour treatment, cultured primary cortical neurons (DIV 14)
[5] = oral, 1 mg/kg, 8-week-old C57BL/6J mice, sacrificed 2 days later, vs vehicle

CC1CCC(C(=O)O)CN1C(=O)Cc1ccc(F)cc1Cl (racemic) [BnH12001, 1-(2-(2-chloro-4-fluorophenyl)acetyl)-6-methylpiperidine-3-carboxylic acid]
BDNF expression [1, 3]: significantly increased
GluN2B expression [1, 3]: significantly increased
HDAC4 protein expression [1, 3]: significantly suppressed
HDAC4 protein expression in mice barrel cortex ([2]; intraperitoneal administration): significantly suppressed
HDAC4 protein expression in mice barrel cortex ([2]; oral administration): significantly suppressed
Duration of inhibitory effect on HDAC4 protein expression ([2]; oral and intraperitoneal administration, mice barrel cortex): ≥ 9 days

C[C@@H]1CC[C@H](C(=O)O)CN1C(=O)Cc1ccc(F)cc1Cl [BnH12001 enantiomer (3S,6R, 98%<), (3S,6R)-1-(2-(2-chloro-4-fluorophenyl)acetyl)-6-methylpiperidine-3-carboxylic acid]
BDNF expression [1, 4]: increased
GluN2B expression [1, 4]: increased
BDNF expression [2, 5]: significantly increased
GluN2B expression [2, 5]: significantly increased
HDAC4 expression [2, 5]: effectively degraded
GluN2B expression ([2]; oral, 1 mg/kg, 13-month-old C57BL/6J mice, sacrificed 2 days later, vs vehicle): significantly increased
